Data published in US11464738B2, “Ionic liquid-based nanoemulsion formulation for the efficient delivery of hydrophilic and hydrophobic therapeutic agents” (Wisconsin Alumni Research Foundation, priority 2018, dated 2022).
Entries after “also recorded” stand apart in the source; their conditions may differ.

Experiments:
[1] = literature value; cited from earlier work
zebrafish (Danio rerio) = assay: Embryo-larval zebrafish developmental toxicity assay; type: in vivo; details: for in vivo toxicity in zebrafish (in words): developmental toxicity assay
Experimental: In Vivo Developmental Toxicity Study. An embryo-larval zebrafish (Danio rerio) model was used to evaluate the toxicity of the novel dicationic cholinium-based ionic liquid. The following protocol was taken from previously published protocol, analyzing the toxicity of a novel triphilic polymers for use as a component in a nanoemulsion.^1 Zebrafish of the AB strain were obtained from Dr. Michael Taylor at the University of Wisconsin-Madison School of Pharmacy, where the fish were cultured until sexual maturation. Zebrafish were maintained in a light/dark cycle of 14:10 h at 28.5° C. in egg water (0.03% Instant Ocean, Blacksburg, Va., USA). The adult fish were fed Anemia nauplii twice daily. Embryos were obtained from adult fish with a ratio of 1:2 for female to male. Six breeding groups were placed in separate spawning aquariums, equipped with a mesh bottom to prevent the eggs from being cannibalized. Crossing was induced in the morning. After one hour, eggs free of macroscopically discernible symptoms of infection and disease were collected, rinsed with egg water, and transferred into Petri dishes until chemical exposure. The embryo-larval toxicity assay was subsequently carried out. 8 fertilized eggs at 2 hours post fertilization (hpf) stage were added to a 24-well plate. Each well was filled with eggs and contained 600 μL of egg water. Six concentrations plus two controls (negative and positive) were plated. For analysis of [DC-7][2Br], sodium bis(trifluoromethylsulfonyl)imide, and [DC-7][2NTf2] containing nanoemulsion the concentrations analyzed were 1 mM, 333 μM, 111 μM, 37 μM, 12.3 μM, and 4.1 μM. 1.5 mL of [DC-7][2NTf2] was added to a 15 mL conical centrifuge tube followed by 1.5 mL of egg water. The sample was allowed to sit for 6 days prior to use. Each day, the sample was sonicated at 40° C. for 6 hours and then allowed to remain at room temperature for 18 hours. After 6 days, the sample was centrifuged at 2000 rpm for 5 minutes to ensure complete sedimentation of the ionic liquid. 1.2 mL of egg water was removed and served as the stock solution. This served as the highest concentration sample. Integration of the internal standard and [DC-7][2NTf2] in the QNMR sample allowed for quantitation of the concentration of [DC-7][2NTf2] present in the stock solution used for the zebrafish viability assay. The concentrations analyzed for [DC-7][2NTf2] sample were 7.11 mM, 3.56 mM, 1.78 mM, 889 μM, 444 μM, and 222 μM.
The plates were covered and incubated at 28.5° C. in a light/dark cycle of 14:10 throughout the 96 hpf exposure period. The observations of zebrafish development were made directly in the well using a stereomicroscope (Nikon SMZ18) every 24 hours. The end points that were selected to monitor the effects of [DC-7][2Br], sodium bis(trifluoromethylsulfonyl)imide, [DC-7][2NTf2] saturated water solution and nanoemulsion included mortality, spontaneous movement, hatching success, pericardial edema, and curved body axis. Embryos and larvae were considered dead when no heartbeat was observed. The number of hatched embryos and a cumulative mortality tally were recorded every 24 h after 2 hpf. At 96 hpf, following the final observations, representative larvae for [DC-7][2Br] and [DC-7][2NTf2] saturated egg water were anesthetized with 0.4% tricaine mesylate solution and mounted on Petri dishes using low melting point agarose. These larvae were then photographed using a high-definition color microscope camera (Nikon DSFi2). Finally, all larvae used for the analysis were euthanized following.

[2] = UV/vis spectroscopy of the aggregation state of AmB; type: physicochemical; details: for aggregation state of AmB in the medium (in words): AmB solubilized in the ionic liquid or ionic liquid mixture named
Experimental: Measuring absorbance of Amphotericin B (AmB) at distinct wavelengths using UV/vis spectroscopy provides insight into its degree of self-aggregation. Absorption spectra were obtained on a Varian Cary 100Bio UV-vis spectrometer (Varian, Palto Alto, Calif.) at 25° C. using a quartz coverslip with a 0.1 mm pathlength (Starna Cells, Inc., Atascadero, Calif.) or a 1 mm pathlength quartz cuvette (Starna Cells, Inc., Atascadero, Calif.). Absorbance was measured from 300 nm to 500 nm. Samples were prepared by direct addition of AmB powder to neat ionic liquids. Ionic liquids solid at room temperature were first melted using a water bath at 60° C. prior to addition of AmB powder. After addition of solid drug, (1) 100 μL of methanol was then added to the IL mixture and the mixture was stirred at room temperature for 1 hour. (2) The drug/IL mixture was then placed under rotary evaporation in a water bath with at a temperature of 60° C. for 1 hour. (3) The drug/IL mixture was then placed under high vacuum for 1 hour. (4) The drug/IL mixture was then allowed to stir for 1 hour. This process (steps 1-4) was repeated until all drug visibly was solubilized. The drug/IL mixture was then placed under rotary evaporation at 60° C. for an additional hour and then under high vacuum for 24 hours prior to use to ensure removal of all methanol. Samples were shielded from light prior to analysis. Neat ionic liquids served as the baseline for AmB samples solubilized in ionic liquid. Dilution samples were performed using 1×PBS for dilution. Analysis of AmB nanoemulsion required a nanoemulsion without drug as the baseline to correct for inherent scattering of the prepared nanoemulsion.

[3] = Quantitative 19F NMR (QNMR) water-solubility of hydrophobic ionic liquids; type: physicochemical; details: saturated D2O; for solubility at 6 days: 25 °C, water, thermodynamic from solid, read-out: Ionic Liquid Concentration in D2O (water-solubility)
Experimental: Example 12A: Quantitative ^19F NMR spectroscopy (QNMR) for determination of concentration of hydrophobic ionic liquids in a water-solution for comparison of water-solubility of hydrophobic ionic liquids.
^19F NMR spectra was measured using a Varian UI 500 MHz spectrometer equipped with a Nalorac Quad Nucleus DD probe (qn6121, 5 mm). The internal temperature of the NMR spectrometer was maintained at 25° C. Sodium trifluoroacetate was used as an internal standard was employed in order to determine the concentration of [DC-7][2NTf2]. The internal standard was prepared in D2O and the stock solution was allowed to sonicate at 30° C. for 4 hours prior to use in order to ensure complete dissolution of sodium trifluoroacetate. Prior to quantitative study, the T1 value of both [DC-7][2NTf2] and sodium trifluoroacetate were determined using an inversion recover experiment acquired with 12 independent quadratically spaced variable (tau) values (values from 0.06944-10). The T1 value was calculated in order to ensure that both signals fully relaxed between pulses. The following parameters were employed for acquisition of T1 spectra: 500 MHz; spectra width, 107962.2 Hz; acquisition time, 1.004 s; number of points, 216688; relaxation delay, 18.996 s; number of transients, 1; 90° pulse width, 17.1 μs. X-Win32 software was used to calculate the T1 value and processing included a line broadening of 1 Hz. The T1 value of the sodium trifluoroacetate and [DC-7][2NTf2] was determined to be 2.76±0.172 seconds and 2.69±0.0885 seconds, respectively. After determination of T1, the QNMR study was completed on an optimized spectrum. […] The acquired spectrum has a signal to noise ratio of 4700, which exceeded the desired 3000 needed for quantitation. […] 0.5 mL of D2O was removed and then subsequently analyzed. Integration of the internal standard and [DC-7][2NTf2] allowed for quantitation of the concentration of [DC-7][2NTf2] present in the stock solution used for the zebrafish viability assay.

[4] = Viscosity (Brookfield viscometer); type: physicochemical; details: 30.2 ° C.
Experimental: A Brookfield viscometer (Model RVDV-1) was used to analyze the ionic liquids at 30° C. The spindle used on the instrument was CPA-41Z. After addition of 2 mL of sample to the instrument cup, the cup was warmed until all IL samples were completely transparent before beginning the measurement. The RPM was adjusted per sample in order to ensure the percent torque applied per sample was in a consistent range.

For `C[C@@H]1[C@H](O)[C@@H](C)/C=C/C=C/C=C/C=C/C=C/C=C/C=C/[C@H](O[C@@H]2O[C@H](C)[C@@H](O)[C@H](N)[C@@H]2O)C[C@@H]2O[C@](O)(C[C@@H](O)C[C@@H](O)[C@H](O)CC[C@@H](O)C[C@@H](O)CC(=O)O[C@H]1C)C[C@H](O)[C@H]2C(=O)O` [AmB, Amphotericin B], the water solubility [1] is given as less than 1.0 µg/mL.
For `O=C(O)C(F)(F)C(F)(F)C(F)(F)C(F)(F)C(F)(F)C(F)(F)C(F)(F)F` [PFOA, perfluorooctanoic acid, reference compound], the “zebrafish malformations, microscope images (in words)” value (zebrafish (Danio rerio); 96 hours post-fertilization, concentration not stated (FIG. 64)) was “spinal curvature”.
With `CCCCCC(=O)[O-].C[N+](C)(C)CCO` [[Chol][Hex], cholinium hexanoate] the “aggregation state of AmB in the medium (in words)” value [2] was “solely the monomeric form” and the “aggregation state of AmB upon dilution (in words)” value ([2]; dilution with phosphate-buffered saline / saline) was “shifts from primarily the monomeric to the aggregated form; also recorded: concentration dependent aggregation; also recorded: shifted from monomeric to aggregated”.
With `C[N+](C)(CCO)CCCCCCC[N+](C)(C)CCO` [[DC-7][2NTf2]] the solubility at 6 days [3] was 10.7 mM, the “Ionic Liquid Concentration in D2O (water-solubility)” value ([3]; 25° C.) was 6 mM and the “zebrafish malformations (in words)” value (zebrafish (Danio rerio); 889 μM, 96 hours post fertilization) was “no malformations”. The “zebrafish survival rate / viability” value (zebrafish (Danio rerio); 889 μM, dilution of saturated water solution, 96 hours post fertilization) was 100%, the “in vivo toxicity in zebrafish (in words)” value (zebrafish (Danio rerio); 96 hours post fertilization) was “does not exhibit toxicity; also recorded: minimal toxicity” and the “in vivo toxicity in zebrafish (in words)” value (zebrafish (Danio rerio); 96 hours post fertilization, listed as [CDIL-7][NTf2]) was “extremely low”. For the same compound, the “aggregation state of AmB in the medium (in words)” value [2] was “mixture of the aggregated form and monomeric form; also recorded: mixture of monomeric and aggregated AmB”.
Compound `C[N+](C)(CCO)CCOCCOCC[N+](C)(C)CCO` [[DC-ether][2NTf2]] has a solubility at 6 days [3] of 13 mM and a Viscosity [4] of 891.5 cP.
In the case of `O=S(=O)([N-]S(=O)(=O)C(F)(F)F)C(F)(F)F.[Na+]` [sodium bis(trifluoromethylsulfonyl)imide, reference compound], the zebrafish survival rate (zebrafish (Danio rerio); 111 μM, 96 hours post fertilization) is reported as 87% and the “in vivo toxicity in zebrafish (in words)” value (zebrafish (Danio rerio); 96 hours post fertilization) is reported as “minimal toxicity”.
